Results taken from article PMC8909834, “An Orally Bioavailable and Highly Efficacious Inhibitor of CDK9/FLT3 for the Treatment of Acute Myeloid Leukemia” (Cancers, 2022).
Where two headings read alike, the source gives them in different places.

Experiment: Pharmacokinetics in mice
Format: in vivo, BALB/c hairy mice
Settings: both sexes, BALB/c hairy, mouse; for AUC / Cmax / Tmax / half-life: ± standard error of the estimate; for half-life: read-out: t½ (converted); for bioavailability: po, read-out: F (oral bioavailability)
Protocol: Pharmacokinetics. The pharmacokinetics of CDDD11-8 was determined in mice after single oral (PO) and intravenous (IV) doses. CDDD11-8 was administered at a dose of 10 or 100 mg/kg PO or 2 mg/kg IV to BALB/c hairy mice (n = 10 per route of administration; both male and female). The IV dose consisted of CDDD11-8 dissolved in 10/90 N-methyl-2-pyrrolidone (NMP)/acetate buffer (pH 4.5), while the PO doses of CDDD11-8 were dissolved in acetate buffer at pH 4.74. At nominal times, up to three blood samples were collected from individual mice at non-consecutive times from the right cheek, left cheek, and heart of an individual mouse. The concentrations in these samples were measured by validated LC-MS/MS methods (limit of quantification = 5 ng/mL). Pharmacokinetic parameters were estimated after fitting compartmental models to the concentration–time data (Phoenix, Certara, NJ, USA). Specifically, a one-compartmental kinetic model with first-order input was used after an oral dose, and a two-compartmental model was fitted to the IV data. Acceptability of models was evaluated from values for Akaike Information Criterion (AIC), Schwarz’s Bayesian Criterion (SIB), and % Coefficient of Variance (CV) for parameters, where lower values were indicative of a better fit. Other considerations were variances in the concentrations of quality control samples and visual inspection of model fit. Oral bioavailability (F) was calculated from values of AUC after PO and IV administration after correcting for the differences in doses.

[1] = plasma, PO 10 mg/kg, read-out: Plasma Conc.
[2] = plasma, PO 100 mg/kg, read-out: Plasma Conc.

Q: With `Cc1cnc(N[C@H]2CC[C@H](N)CC2)nc1-c1cnc2ccc(-c3ccccc3)cn12` [CDDD11-8] as the compound, how does the concentration at 4 h (plasma, PO 10 mg/kg, 4.0 h, read-out: Plasma Conc.) read?
A: 0.169 µg/mL

Q: What about the concentration at 4.7 h (plasma, PO 10 mg/kg, 4.7 h, read-out: Plasma Conc.) of the same compound?
A: 0.034 µg/mL

Q: What about the concentration at 5.4 h (plasma, PO 10 mg/kg, 5.4 h, read-out: Plasma Conc.) of the same compound?
A: 0.017 µg/mL

Q: What about the concentration at 6.2 h (plasma, PO 10 mg/kg, 6.2 h, read-out: Plasma Conc.) of the same compound?
A: 0.02 µg/mL

Q: What about the concentration at 6.8 h (plasma, PO 10 mg/kg, 6.8 h, read-out: Plasma Conc.) of the same compound?
A: 0.0034 µg/mL

Q: What about the concentration at 7.8 h [1] of the same compound?
A: 0.0016 µg/mL

Q: What about the concentration at 8.5 h (plasma, PO 10 mg/kg, 8.5 h, read-out: Plasma Conc.) of the same compound?
A: 0.0018 µg/mL

Q: What about the concentration at 9.7 h (plasma, PO 10 mg/kg, 9.7 h, read-out: Plasma Conc.) of the same compound?
A: 0.001 µg/mL

Q: And the concentration at 15.8 h (plasma, PO 10 mg/kg, 15.8 h, read-out: Plasma Conc.)?
A: 0 µg/mL

Q: And the concentration at 21 h (plasma, PO 10 mg/kg, 21.0 h, read-out: Plasma Conc.)?
A: 0 µg/mL

Q: And the concentration at 24.6 h [1]?
A: 0 µg/mL

Q: What about the concentration at 0.1 h (plasma, PO 100 mg/kg, 0.10 h, read-out: Plasma Conc.) of the same compound?
A: 0.81 µg/mL

Q: What about the concentration at 0.38 h (plasma, PO 100 mg/kg, 0.38 h, read-out: Plasma Conc.) of the same compound?
A: 0.925 µg/mL

Q: What about the concentration at 0.73 h (plasma, PO 100 mg/kg, 0.73 h, read-out: Plasma Conc.) of the same compound?
A: 2.66 µg/mL

Q: What about the concentration at 1.2 h (plasma, PO 100 mg/kg, 1.2 h, read-out: Plasma Conc.) of the same compound?
A: 1.81 µg/mL

Q: And the concentration at 1.9 h (plasma, PO 100 mg/kg, 1.9 h, read-out: Plasma Conc.)?
A: 3.01 µg/mL

Q: What about the concentration at 2.6 h (plasma, PO 100 mg/kg, 2.6 h, read-out: Plasma Conc.) of the same compound?
A: 3.68 µg/mL

Q: And the concentration at 2.9 h (plasma, PO 100 mg/kg, 2.9 h, read-out: Plasma Conc.)?
A: 2.48 µg/mL

Q: What about the concentration at 4.9 h (plasma, PO 100 mg/kg, 4.9 h, read-out: Plasma Conc.) of the same compound?
A: 4.83 µg/mL

Q: And the concentration at 6.1 h (plasma, PO 100 mg/kg, 6.1 h, read-out: Plasma Conc.)?
A: 2.16 µg/mL

Q: And the concentration at 7 h (plasma, PO 100 mg/kg, 7.0 h, read-out: Plasma Conc.)?
A: 0.881 µg/mL

Q: And the concentration at 7.8 h [2]?
A: 0.717 µg/mL

Q: What about the concentration at 8.3 h (plasma, PO 100 mg/kg, 8.3 h, read-out: Plasma Conc.) of the same compound?
A: 1.2 µg/mL

Q: What about the concentration at 8.9 h (plasma, PO 100 mg/kg, 8.9 h, read-out: Plasma Conc.) of the same compound?
A: 0.854 µg/mL

Q: What about the concentration at 9.6 h (plasma, PO 100 mg/kg, 9.6 h, read-out: Plasma Conc.) of the same compound?
A: 0.248 µg/mL

Q: What about the concentration at 16 h (plasma, PO 100 mg/kg, 16.0 h, read-out: Plasma Conc.) of the same compound?
A: 0.077 µg/mL

Q: And the concentration at 22.1 h (plasma, PO 100 mg/kg, 22.1 h, read-out: Plasma Conc.)?
A: 0.153 µg/mL

Q: What about the concentration at 24.6 h [2] of the same compound?
A: 0.074 µg/mL

Q: And the concentration at 29 h (plasma, PO 100 mg/kg, 29.0 h, read-out: Plasma Conc.)?
A: 0.062 µg/mL

Q: And the concentration at 41.2 h (plasma, PO 100 mg/kg, 41.2 h, read-out: Plasma Conc.)?
A: 0 µg/mL

Q: What about the Vd (plasma, intravenous, 2 mg/kg, read-out: volume of distribution) of the same compound?
A: 1.71 L/kg

Q: What about the AUC (plasma, oral 10 mg/kg) of the same compound?
A: 1.36 ± 0.249 µg·h/mL

Q: What about the Cmax (plasma, oral 10 mg/kg) of the same compound?
A: 0.496 ± 0.108 µg/mL

Q: And the Tmax (plasma, oral 10 mg/kg)?
A: 1 ± 0.1 h

Q: What about the half-life (plasma, oral 10 mg/kg) of the same compound?
A: 0.68 ± 0.3 h

Q: And the AUC (plasma, oral 100 mg/kg)?
A: 25.4 µg·h/mL

Q: And the Cmax (plasma, oral 100 mg/kg)?
A: 3.6 ± 0.822 µg/mL

Q: And the Tmax (plasma, oral 100 mg/kg)?
A: 2 ± 0.6 h

Q: And the half-life (plasma, oral 100 mg/kg)?
A: 6.8 ± 3.7 h

Q: What about the bioavailability (plasma, 10 mg/kg, oral 10 mg/kg) of the same compound?
A: ~30%

Q: And the bioavailability (plasma, 100 mg/kg, oral 100 mg/kg)?
A: 56%

Q: And the clearance (whole blood, intravenous, 2 mg/kg, plasma clearance divided by B/P, read-out: blood clearance (converted))?
A: 3.1 L/h/kg
